According to US20230149409A1, “TREATMENT OF HUMAN PAPILLOMAVIRUS-ASSOCIATED CANCERS BY PD-L1 INHIBITORS” (priority 2021, published 2023):

What was measured:
[1] = target: T1, PD-⅟PD-L1 (recombinant human PD-L1 protein and human PD-1 protein) (Homo sapiens, UniProt Q9NZQ7); experiment: Homogeneous Time-Resolved Fluorescence (HTRF) PD-1/PD-L1 binding assay; settings: 3 nM PD1, 10 nM PD-L1, 25° C., PBS pH 7.4
T1 construct: Recombinant human PD-L1 protein (19-238) with a His-tag at the C-terminus; purchased AcroBiosystems PD1-H5229 (PD-L1); PD1-H5257 (PD-1)

[2] = tested on: select advanced solid tumors (HPV+ carcinomas); experiment: Phase 1 open-label clinical trial of Compound 24; type: in vivo, human; design: key: complete response (CR); partial response (PR); stable disease (SD); progressive disease (PD)
From the text: Two open-label, nonrandomized, global multicenter Phase 1 studies in participants with select advanced solid tumors are being conducted for Compounds 24 and 30 in Table 1 supra. In addition to the primary endpoint of determining safety, tolerability, PAD and/or maximum tolerated dose (MTD) of each compound, the studies are exploring preliminary efficacy (complete response (CR), partial response (PR), stable disease (SD), or progressive disease (PD)) in participants with select advanced cancers, including virally mediated tumors such as HPV+ carcinomas. HPV+ tumors can be determined by a local laboratory using p16 IHC, polymerase chain reaction methods, or other locally-available method to detect HPV. Results for patients having solid tumors whose HPV+ status was confirmed, suspected or negative are shown below for Compound 24 and Compound 30 in Tables 4 and 5, respectively.

[3] = target: T2, PD-L1 on CD14+ cells in human whole blood (Homo sapiens, UniProt Q9NZQ7); experiment: PD-L1 whole blood internalization assay; type: cell-based; settings: 1 ng/mL interferon γ, CD14+ gated, 24 hour
T2 construct: Cells were gated on CD14+ (BD Biosciences) and PD-L1 expression determined by mean fluorescence intensity; host or cells: CD14+ cells in normal human whole blood, stimulated with human interferon gamma
In short: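 Normal human whole blood exposed to compound concentration range plus 1 ng/mL IFN-γ for 18–20 h at 37 °C, then stained for PD-L1 and CD14, red cells lysed/fixed. PD-L1 MFI measured on CD14+ gated cells by flow cytometry; IC50 from percent inhibition versus log concentration fit.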

[4] = tested on: PD-L1 (U2OS/PD-L1 cells, Jurkat-PD-1-SHP cells); experiment: Src Homology Region 2 Domain-containing Phosphatase (SHP) assay; type: cell-based; settings: Homo sapiens; U2OS/PD-L1 + Jurkat-PD-1-SHP cells, 2 hours
In short: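 U2OS/PD-L1 cells and Jurkat-PD-1-SHP cells (5,000 each per well) were co-incubated with compound in RPMI1640/1% FBS for 2 h at 37° C, with final DMSO 0.05%. PathHunter chemiluminescence was read after 1 h at room temperature. IC50 was fitted from percent of DMSO-control activity against log concentration.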

[5] = tested on: PD-L1 (PD-L1 aAPC/CHO-K1 cells, Jurkat-PD-1-NFAT effector cells); experiment: Nuclear Factor of Activated T-cells (NFAT) assay; type: cell-based; settings: Cricetulus griseus; PD-L1 aAPC/CHO-K1 + Jurkat-PD-1-NFAT cells, 24 hours
In short: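 PD-L1 aAPC/CHO-K1 cells (8000/well) were treated with compound (0.4% DMSO, 2 µM final), then co-cultured with Jurkat-PD-1-NFAT effector cells for 24 hours at 37° C. NFAT luciferase luminescence was normalized to DMSO as fold induction. Maximum induction is relative to the control compound's top FOI; EC50 is from curve fitting.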

T1 sequence (Q9NZQ7 19-238): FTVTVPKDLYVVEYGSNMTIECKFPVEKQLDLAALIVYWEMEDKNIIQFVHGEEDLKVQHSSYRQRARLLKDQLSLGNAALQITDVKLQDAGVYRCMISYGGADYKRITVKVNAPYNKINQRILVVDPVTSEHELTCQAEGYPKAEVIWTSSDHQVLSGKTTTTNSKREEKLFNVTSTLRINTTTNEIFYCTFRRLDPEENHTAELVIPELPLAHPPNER
T2 sequence (Q9NZQ7 19-290): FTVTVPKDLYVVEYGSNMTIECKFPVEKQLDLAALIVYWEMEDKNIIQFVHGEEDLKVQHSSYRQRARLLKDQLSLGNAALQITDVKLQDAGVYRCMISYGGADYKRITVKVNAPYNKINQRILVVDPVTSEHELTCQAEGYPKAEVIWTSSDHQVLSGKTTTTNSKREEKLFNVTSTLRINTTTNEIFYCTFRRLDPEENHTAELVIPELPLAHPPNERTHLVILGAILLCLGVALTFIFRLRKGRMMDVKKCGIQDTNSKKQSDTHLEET

SMILES: Cc1c(Nc2nc(C(F)F)nc3cc(CN4CC[C@@H](O)C4)cnc23)cccc1-c1cccc(-c2nc3cc(CN4CCC(C(=O)O)CC4)cc(C#N)c3o2)c1C [Compound 24]
- IC50 [1]: < 10 nM
- Best Overall Response ([2]; Patient 1, 200 mg QD, Cervical cancer (AC), HPV/p16 status Not determined): SD
- Best Overall Response ([2]; Patient 2, 200 mg BID, Cervical cancer (clear cell), HPV/p16 status Not determined): PD
- Best Overall Response ([2]; Patient 3, 400 mg BID, Anal carcinoma, HPV 16 positive): SD
- Best Overall Response ([2]; Patient 4, 400 mg BID, Anal carcinoma, HPV 16 positive): SD
- Best Overall Response ([2]; Patient 5, 300 mg BID, Vaginal cancer (SCC), HPV 16 positive): SD
- Best Overall Response ([2]; Patient 6, 400 mg BID, Cervical cancer (SCC), HPV 16 positive): PR
- Best Overall Response ([2]; Patient 7, 200 mg BID, Anal carcinoma (SCC), Positive unknown type): PD
- Best Overall Response ([2]; Patient 8, 400 mg BID, Anal carcinoma, HPV 16 positive): PD
- Best Overall Response ([2]; Patient 9, 600 mg QD, Anal carcinoma (rectovaginal), HPV 16,33,31 positive): SD
- Best Overall Response ([2]; Patient 10, 400 mg BID, Cervical cancer (AC), HPV 16 positive): SD
- Best Overall Response ([2]; Patient 11, 400 mg BID, Anal carcinoma (SCC), HPV/p16 status Not determined): PR
- Best Overall Response ([2]; Patient 12, 600 mg QD, Anal carcinoma (SCC), HPV/p16 status Not determined): SD
- Best Overall Response ([2]; Patient 13, 400 mg BID, Rectovaginal septum (SCC), P16+, HPV 16): PD
- Best Overall Response ([2]; Patient 14, 600 mg QD, Anal carcinoma, HPV 16): PD
- Best Overall Response ([2]; Patient 15, 800 mg QD, Anal carcinoma, HPV 16): PD
- Best Overall Response ([2]; Patient 16, 800 mg QD, Vulvar (SCC), HPV/p16 status Not determined): PD
- Best Overall Response ([2]; Patient 18, 800 mg QD, Cervical cancer (SCC), P16 positive): PD
- Best Overall Response ([2]; Patient 19, 800 mg QD, Anal cancer, HPV 16 positive): PD
- Best Overall Response ([2]; Patient 20, 800 mg QD, Anal cancer, HPV 16 positive): PD
- Best Overall Response ([2]; Patient 21, 300 mg BID, Anal cancer, HPV 16): SD
- IC50 [3]: < 100 nM

SMILES: Cc1c(NC(=O)c2nc3c(n2C)CCN(C)C3)cccc1-c1cccc(NC(=O)c2nc3c(n2C)CCN(C[C@H]2CC[C@@H](C(=O)O)CC2)C3)c1Cl [Compound 18, cis-4-((2-((2-chloro-3′-(1,5-dimethyl-4,5,6,7-tetrahydro-1H-imidazo[4,5-c]pyfidine-2-caiboxamido)-2′-methyl-[1,1′-biphenyl]-3-yl)carbamoyl)-1-methyl-1,4,6,7-tetrahydro-5H-imidazo[4,5-c]pyridin-5-yl)methyl)cyclohexane-1-carboxylic acid]
- IC50 [1]: < 10 nM
- IC50 [4]: < 10 nM
- IC50 [3]: < 100 nM
- EC50 [5]: < 100 nM
